Data taken from patent publication US4426382A, “4-Amino-6,7-dimethoxy-2-piperazinylquinazoline derivatives, their preparation and use” (Sankyo Company Limited, priority 1980, dated 1984).
Where a name gives a salt, the structure may show the parent alone.

Experiments:
[1] = tested on: spontaneously hypertensive rats; assay: antihypertensive activity: blood pressure after oral administration to conscious spontaneously hypertensive rats; assay type: in vivo; conditions: male spontaneously hypertensive rats
Protocol: The animals used in this test were 15 week old male spontaneously hypertensive rats. 3-5 rats were used to test each concentration of each compound. Each animal was treated as follows. […] A polyethylene cannula was then inserted into the abdominal aorta by the method of Weeks and Jones [J. R. Weeks and J. A. Jones, Proc. Soc. […] The other end of the cannula, leading out of the body, was fixed to the neck. One week after the operation, when the animal had recovered from post-operative invasion, this end of the cannula was connected to an apparatus to measure the blood pressure and heart beat directly without the need for any further anesthesia or restraint. The haemomanometer used was an improved type of that originated by Laffan et al. [P. J. Laffan, A. Peterson, S. W. Hitch and C.
The compound under test was suspended at the desired concentration in a 0.3% w/v aqueous solution of carboxymethylcellulose and administered orally in a volume of 2 ml/kg body weight. […] After administration of the sample, the blood pressure and heart beat of each animal were measured for 24 hours at 15 minute intervals.
For purposes of comparison, the same experiment was carried out with various concentrations of the known hypotensive agent, prazosin, in the form of its hydrochloride.
Δmax =Maximum change in blood pressure (mm/Hg) after administration of the compound under test;
Tmax =Time (in hours) after administration of the compound under test required for the blood pressure to obtain a maximum change;
T0.5 max =Time (in hours) after administration of the compound under test for the blood pressure to return to one-half of its maximum value.

[2] = background; cited from earlier work

| Compound | T0.5 max, time after administration for the blood pressure to return to one-half of its maximum value ([1]; dose 3 mg/kg oral) [h] | Tmax, time after administration required for the blood pressure to obtain a maximum change ([1]; dose 3 mg/kg oral) [min] | Δmax, maximum change in blood pressure after administration ([1]; dose 3 mg/kg oral) [mmHg] | T0.5 max, time after administration for the blood pressure to return to one-half of its maximum value ([1]; dose 30 mg/kg oral) [h] | Tmax, time after administration required for the blood pressure to obtain a maximum change ([1]; dose 30 mg/kg oral) [min] | Δmax, maximum change in blood pressure after administration ([1]; dose 30 mg/kg oral) [mmHg] | other results |
| --- | --- | --- | --- | --- | --- | --- | --- |
| CCCC=CC(=O)N1CCN(c2nc(N)c3cc(OC)c(OC)cc3n2)CC1 [Compound No. 8, 4-Amino-2-[4-(2-hexenoyl)-1-piperazinyl]-6,7-dimethoxyquinazoline] | 4.5 | 30 | -35 | 7 | 30 | -40 | – |
| CCC=CC(=O)N1CCN(c2nc(N)c3cc(OC)c(OC)cc3n2)CC1 [5 hydrochloride] | – | 30 | -40 | – | – | – | T0.5 max, time after administration for the blood pressure to return to one-half of its maximum value ([1]; dose 3 mg/kg oral, 3 mg/kg): 7 h; T0.5 max, time after administration for the blood pressure to return to one-half of its maximum value ([1]; dose 30 mg/kg oral, 30 mg/kg): 14 h; Tmax, time after administration required for the blood pressure to obtain a maximum change ([1]; dose 30 mg/kg oral, 30 mg/kg): 45 min; Δmax, maximum change in blood pressure after administration ([1]; dose 30 mg/kg oral, 30 mg/kg): -48 mmHg |
| COc1cc2nc(N3CCN(C(=O)COc4ccccc4)CC3)nc(N)c2cc1OC [27 hydrochloride hydrate] | 8 | 300 | -20 | 8 | 300 | -40 | – |
| COc1cc2nc(N3CCN(C(=O)[C@@H]4C[C@H]4c4ccccc4)CC3)nc(N)c2cc1OC (relative stereo) [34 hydrochloride hydrate] | 8 | 60 | -33 | – | – | – | T0.5 max, time after administration for the blood pressure to return to one-half of its maximum value ([1]; dose 10 mg/kg oral): 12 h; Tmax, time after administration required for the blood pressure to obtain a maximum change ([1]; dose 10 mg/kg oral): 120 min; Δmax, maximum change in blood pressure after administration ([1]; dose 10 mg/kg oral): -50 mmHg |
| COc1cc2nc(N3CCN(C(=O)c4ccco4)CC3)nc(N)c2cc1OC [prazosin] | – | – | – | – | – | – | antihypertensive activity (in words) [2]: very useful antihypertensive activity; disappearance of hypotensive effect (in words) [2]: the effect tends also to diappear quickly; time to maximum hypotensive effect (in words) [2]: maximum hypotensive effect tends to be achieved very quickly |
| CC=CC(=O)N1CCCN(c2nc(N)c3cc(OC)c(OC)cc3n2)CC1 [9 hydrochloride hydrate] | 3.5 | 30 | -25 | 5 | 45 | -35 | – |
